In PubChem BioAssay (NCI):
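Test compounds were applied to cells in 96-well plates for 48 hours at 5 doses. GI50: concentration for 50% inhibition of growth. Definition used: TGI = concentration required for complete inhibition of growth.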

Tests used:
Assay in all cases: NCI-60 cell line screen, 48 h
ACHN renal = test system: ACHN renal
COLO 205 colon = test system: COLO 205 colon
MDA-MB-435 = test system: MDA-MB-435
NCI-H23 lung = test system: NCI-H23 lung
OVCAR-8 ovarian = test system: OVCAR-8 ovarian
SK-MEL-5 melanoma = test system: SK-MEL-5 melanoma
SN12C renal = test system: SN12C renal
SNB-19 CNS = test system: SNB-19 CNS
T-47D breast = test system: T-47D breast
CCRF-CEM leukemia = test system: CCRF-CEM leukemia

Compound	GI50 (ACHN renal) [nM]	TGI (ACHN renal) [µM]	GI50 (COLO 205 colon) [nM]	TGI (COLO 205 colon) [µM]	GI50 (MDA-MB-435) [µM]	TGI (MDA-MB-435) [µM]	GI50 (NCI-H23 lung) [µM]	TGI (NCI-H23 lung) [µM]	GI50 (OVCAR-8 ovarian) [µM]	TGI (OVCAR-8 ovarian) [µM]	GI50 (SK-MEL-5 melanoma) [µM]	TGI (SK-MEL-5 melanoma) [µM]	GI50 (SN12C renal) [µM]	TGI (SN12C renal) [µM]	GI50 (SNB-19 CNS) [µM]	TGI (SNB-19 CNS) [µM]	GI50 (T-47D breast) [µM]	TGI (T-47D breast) [µM]	TGI (CCRF-CEM leukemia) [µM]	GI50 (CCRF-CEM leukemia) [nM]
Nc1ccn([C@@H]2C(F)=C(CO)[C@@H](O)[C@H]2O)c(=O)n1	755	> 100	838	> 100	0.846	> 100	3.84	> 100	0.551	> 100	4.37	> 100	0.448	> 100	2.81	> 100	5.02	> 100	–	–
COc1nc2c(c(O)c(C)c(=O)n2OC2OC(COC(C)=O)C(OC(C)=O)C(OC(C)=O)C2OC(C)=O)c(=O)n1C (centres undefined)	–	> 100	–	> 100	–	–	–	> 100	–	> 100	–	> 100	–	> 100	–	> 100	–	–	> 100	–
COc1ccc2[nH]c3c(=O)[nH]ncc3c2c1	–	> 100	–	> 100	–	–	–	> 100	–	> 100	–	> 100	–	–	–	> 100	–	–	> 100	–
CN(C)C(=O)SC1=C(c2c(Cl)cccc2Cl)C(=O)c2ccccc21	2230	5.03	2220	4.42	4.54	15.9	7.14	19	6.38	17.1	7.16	19.2	6.18	17.7	15.8	29.4	–	–	9.27	2670
Cc1ccc(-n2c3c(c4c(CN5CCOCC5)c(O)ccc42)CCc2ccccc2C3=O)cc1	> 100000	> 100	> 100000	> 100	29.6	> 100	> 100	> 100	90.7	> 100	76	> 100	46.9	> 100	> 100	> 100	> 100	> 100	–	–
COc1ccc(CC2=NCCc3cc(OC)c(OC)cc32)cc1Br	–	> 100	–	37.4	–	–	–	> 100	–	> 100	–	25.3	–	> 100	–	> 100	–	–	> 100	–
COc1cc2cccc(N=Cc3c(Br)ccc(OC)c3OC(C)C)c2cc1OC	–	> 100	–	> 100	–	–	–	> 100	–	> 100	–	> 100	–	> 100	–	> 100	–	–	90.4	–
CC(C)(C)c1cc(CCC(=O)Nc2ccc(Cl)cc2Cl)nc(N)n1	–	> 100	–	> 100	–	–	–	> 100	–	> 100	–	> 100	–	> 100	–	> 100	–	–	> 100	–
Cc1ccccc1NC(=O)C(=O)CC(=O)c1ccc([N+](=O)[O-])cc1	–	> 100	–	> 100	–	–	–	> 100	–	> 100	–	–	–	> 100	–	> 100	–	–	–	–
